These are literature values, as cited in US20060205727A1, “Combination therapy for endothelial dysfunction, angina and diabetes” (priority 2005, published 2006).

For data set [1] the following is noted: in vivo.
In data set [2] the test system is plasma C-reactive protein. The conditions noted are these: acute myocardial infarction, streptokinase plus intravenous trimetazidine infusion.

The structures appear in SMILES notation.

Consider `COc1ccccc1OCC(O)CN1CCN(CC(=O)Nc2c(C)cccc2C)CC1` (centres unmarked) [Ranolazine, ranolazine], for which the QT interval prolongation result in data set [1] is reported as “causes QT interval prolongation”.
With `COc1ccc(CN2CCNCC2)c(OC)c1OC` [trimetazidine], the “levels of plasma C-reactive protein” value in data set [2] was “reduce the levels of plasma C-reactive protein”.
